Measured values reported in publication PMC8707861 (Tomography, 2021).
Like-named read-outs stand apart in the source and are kept apart here.

Columns and labels:
[1] = Stability by incubation in 10 mM cysteine solution (HPLC); format: physicochemical
Method: (§1) After different time intervals the content of the solutions was tested by HPLC method.

[2] = Stability by incubation in 10 mM histidine solution (HPLC); format: physicochemical
Method: as §1

[3] = human serum, 37 °C
Method: In the case of stability studies in human serum (HS), the solution of isolated radioconjugate in PBS (0.1 mL) was added to 0.9 mL of the human serum and incubated at 37 °C. After time periods up to 4 h, 0.2 mL of the incubated serum mixture were withdrawn, mixed in an Eppendorf tube with 0.5 mL ethanol and vigorously shaken to precipitate proteins. After centrifuging (14,000 rpm for 5 min) the γ-radiation of both the supernatant and precipitate was measured using the well-type NaI(Tl) detector. To check whether the radioconjugate had not converted into other water-soluble radioactive species, aliquots of the supernatant were analysed by HPLC.

[4] = Paper electrophoresis analysis (charge of the molecule); format: physicochemical; conditions: 0.01 M phosphate buffer pH 7.40, 200 V, 45 min
Method: Paper electrophoresis experiments were achieved on 20 × 1 cm chromatographic paper strips, Paper Chromedia GF 83 (Whatman), in the phosphate buffer (0.01 M, pH 7.40), using the midi horizontal electrophoresis unit (Sigma-Aldrich) device. For both radioconjugates, the experiments were carried out at 200 V (10 V cm^−1) for 45 min and then the distribution of radioactivity on the strips was determined using a Storage Phosphor System Cyclone Plus (Perkin-Elmer Life and Analytical Sciences, Downers Grove, IL, USA).

[5] = tested on: P. aeruginosa ATCC 27,853; assay: In vitro binding of radioconjugate to bacteria; format: cell-based; conditions: Pseudomonas aeruginosa, 37 °C
Method: (§2) Bacteria were cultured on Columbia Agar supplemented with 5% sheep blood (Graso Biotech, Starogard Gdański, Poland) at 37 °C in an aerobic atmosphere for 24 h. After incubation, a bacterial suspension with the turbidity 3 according to the McFarland standards (cell density approximately 9 × 10^8 CFU/mL) was prepared in PBS. […] The mixtures of bacteria and the radioconjugate were incubated in separated tubes for different time intervals at 37 °C without shaking. […] The supernatant was removed to a new tube, and the bacterial pellet was resuspended in 1 mL of PBS, then the sample was again centrifuged at 7000 rpm for 5 min. After second centrifugation, the supernatant was removed to a new tube and the bacterial pellet was again resuspended in 1 mL of PBS. The radioactivity measurement was performed for all three fractions, two supernatants, and a final bacterial pellet suspension. Experiments for each incubation time were triplicate.

[6] = tested on: S. aureus ATCC 25,923; assay: In vitro binding of radioconjugate to bacteria; format: cell-based; conditions: Staphylococcus aureus, 37 °C
Method: as §2

[7] = n-octanol/PBS pH 7.40, triplicate
[8] = period of four half-lives of the radionuclide

- % of intact radioconjugate after incubation in CYS ([1]; 10 mM CYS in PBS pH 7.4, 37 °C, after 4 h): ~100%
- Stability in CYS challenging solution (in words) [1, 8]: completely stable
- % of intact radioconjugate after incubation in HIS ([2]; 10 mM HIS in PBS pH 7.4, 37 °C, after 4 h): ~100%
- Stability in HIS challenging solution (in words) [2, 8]: completely stable
- % of intact radioconjugate after incubation in HS ([3]; after 0.5 h): ~100%
- % of intact radioconjugate after incubation in HS ([3]; after 1 h): ~100%
- % of intact radioconjugate after incubation in HS ([3]; after 4 h): ~100%
- Stability in HS (in words) ([3]; for 68Ga period of four half-lives): completely stable
- Charge of the molecule by electrophoresis [4]: Negative charge
- Radioconjugate Uptake ([5]; binding time 30 min): 0.82 ± 0.16%
- Radioconjugate Uptake ([5]; binding time 60 min): 1.29 ± 0.27%
- Radioconjugate Uptake ([6]; binding time 30 min): 0.89 ± 0.11%
- Radioconjugate Uptake ([6]; binding time 60 min): 1.1 ± 0.15%
- logD [7]: −3.1 ± 0.1
SMILES: O=C(O)C[N+]12CC[N+]34CC[N+]5(CC(=O)N6CCN(c7cc8c(cc7F)c(=O)c(C(=O)O)cn8C7CC7)CC6)CC[N+]6(CC1)CC(=O)[O][68Ga-3]2365[O]C(=O)C4 (centres unmarked) [[^68Ga]Ga-DOTA-CIP]
